Data reported in patent publication US8956160B2, “Device and method for delivering an oral care agent” (Ranir, LLC, priority 2002, dated 2015).

Test: Accelerated H2O2 stability study with individual ingredients of backing, anchor and oral care layers
Format: physicochemical
Conditions: 40° C./75% RH, up to 9 weeks
Experimental: Accelerated H2O2 stability studies were conducted at 40° C./75% relative humidity (RH) with the individual ingredients used to form the backing, anchor and oral care layers as described in Example 1.

H2O2 stability: good stability
SMILES: OO [Device H2O2, hydrogen peroxide]
